Source: PubChem BioAssay AID2060498 (Molecular Pharmacology Branch, DTP, NCI, 2025)

System: 171881-019-R-J1-PDC tumor spheroids, viability
Assay: Anticancer human tumor 171881-019-R-J1-PDC patient-derived invasive breast carcinoma cell line growth inhibition [GQUAD]
Conditions: spheroids with HUVEC and MSC; for IC50: curve of first compound; for viability, T/C: stronger effect = lower value; active means viability on the fitted dose curve at most 10% of control; inactive means the rest
In short: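 Tumor cells were grown as complex spheroids with HUVEC endothelial cells and mesenchymal stem cells as stroma. G-quadruplex stabilizers were combined with targeted agents over half-log dilutions from near the clinical Cmax, or from 10 microM.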

[1] = second compound 0.0316 µM, first compound 0.0316 µM
[2] = second compound 0.0316 µM, first compound 0.1 µM
[3] = second compound 0.0316 µM, first compound 0.316 µM
[4] = second compound 0.0316 µM, first compound 1 µM
[5] = second compound 0.0316 µM, first compound 3.16 µM
[6] = second compound 0.0316 µM, first compound 10 µM
[7] = second compound 0.1 µM, first compound 0.0316 µM
[8] = second compound 0.1 µM, first compound 0.1 µM
[9] = second compound 0.1 µM, first compound 0.316 µM
[10] = second compound 0.1 µM, first compound 1 µM
[11] = second compound 0.1 µM, first compound 3.16 µM
[12] = second compound 0.1 µM, first compound 10 µM
[13] = second compound 0.316 µM, first compound 0.0316 µM
[14] = second compound 0.316 µM, first compound 0.1 µM
[15] = second compound 0.316 µM, first compound 0.316 µM
[16] = second compound 0.316 µM, first compound 1 µM
[17] = second compound 0.316 µM, first compound 3.16 µM
[18] = second compound 0.316 µM, first compound 10 µM
[19] = second compound 1 µM, first compound 0.0316 µM
[20] = second compound 1 µM, first compound 0.1 µM
[21] = second compound 1 µM, first compound 0.316 µM
[22] = second compound 1 µM, first compound 1 µM
[23] = second compound 1 µM, first compound 3.16 µM
[24] = second compound 1 µM, first compound 10 µM
[25] = second compound 3.16 µM, first compound 0.0316 µM
[26] = second compound 3.16 µM, first compound 0.1 µM
[27] = second compound 3.16 µM, first compound 0.316 µM
[28] = second compound 3.16 µM, first compound 1 µM
[29] = second compound 3.16 µM, first compound 3.16 µM
[30] = second compound 3.16 µM, first compound 10 µM
[31] = second compound 10 µM, first compound 0.0316 µM
[32] = second compound 10 µM, first compound 0.1 µM
[33] = second compound 10 µM, first compound 0.316 µM
[34] = second compound 10 µM, first compound 1 µM
[35] = second compound 10 µM, first compound 3.16 µM
[36] = second compound 10 µM, first compound 10 µM
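Further: spheroids exposed to compounds for 7 days.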
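Wherever viability, T/C is given: 100% = DMSO vehicle control viability.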

CC1COCCN1c1cc(-c2ccnn2C)c2ccnc(-c3ccn[nH]3)c2n1 (centres undefined) + CN(C)c1ccc(Nc2c3ccc(NC(=O)CCN4CCCC4)cc3nc3cc(NC(=O)CCN4CCCC4)ccc23)cc1
40.8 nM: IC50 (second compound 0.316 µM)
65.2 nM: IC50 (second compound 0.0316 µM)
inactive: viability, T/C [1] 76.9% | viability, T/C [2] 34.1% | viability, T/C [3] 12.4% | viability, T/C [7] 64.8% | viability, T/C [8] 30.4% | viability, T/C [9] 11.6% | viability, T/C [13] 55.2% | viability, T/C [14] 31.6% | viability, T/C [15] 10.3% | viability, T/C [19] 20.7%
< 31.6 nM: IC50 (second compound 1 µM) | IC50 (second compound 3.16 µM) | IC50 (second compound 10 µM)
active: viability, T/C [4] 5.31% | viability, T/C [5] 1.79% | viability, T/C [6] 1.42% | viability, T/C [10] 5.34% | viability, T/C [11] 1.93% | viability, T/C [12] 1.63% | viability, T/C [16] 3.25% | viability, T/C [17] 1.4% | viability, T/C [18] 1.07% | viability, T/C [20] 8.28% | viability, T/C [21] 4.88% | viability, T/C [22] 1.45% | viability, T/C [23] 0.66% | viability, T/C [24] 0.48% | viability, T/C [25] 1.59% | viability, T/C [26] 1.01% | viability, T/C [27] 0.89% | viability, T/C [28] 0.34% | viability, T/C [29] 0.71% | viability, T/C [30] 0.14% | viability, T/C [31] 0.16% | viability, T/C [32] 0.3% | viability, T/C [33] 0.33% | viability, T/C [34] 0.32% | viability, T/C [35] 0.43% | viability, T/C [36] 0.14%
51.9 nM: IC50 (second compound 0.1 µM)

CC1COCCN1c1cc(C2(S(C)(=N)=O)CC2)nc(-c2ccnc3[nH]ccc23)n1 (centres undefined) + Cc1cnc(CNC(=O)c2c(=O)c3ccc(N4CCCN(C)CC4)nc3n3c2sc2ccccc23)cn1
1050 nM: IC50 (second compound 0.1 µM)
755 nM: IC50 (second compound 0.316 µM)
1040 nM: IC50 (second compound 0.0316 µM) | IC50 (second compound 3.16 µM)
1110 nM: IC50 (second compound 10 µM)
inactive: viability, T/C [1] 93.8% | viability, T/C [2] 82.8% | viability, T/C [3] 90.7% | viability, T/C [4] 50.8% | viability, T/C [5] 15.5% | viability, T/C [6] 9.59% | viability, T/C [7] 87.5% | viability, T/C [8] 87.8% | viability, T/C [9] 74.1% | viability, T/C [10] 53.9% | viability, T/C [11] 18.7% | viability, T/C [13] 74.9% | viability, T/C [14] 80.5% | viability, T/C [15] 63.5% | viability, T/C [16] 45.7% | viability, T/C [17] 21.7% | viability, T/C [18] 11.2% | viability, T/C [19] 67.6% | viability, T/C [20] 61.5% | viability, T/C [21] 68.7% | viability, T/C [22] 50.3% | viability, T/C [23] 28.7% | viability, T/C [24] 13.6% | viability, T/C [25] 61.9% | viability, T/C [26] 56.9% | viability, T/C [27] 58.7% | viability, T/C [28] 50.3% | viability, T/C [29] 35.1% | viability, T/C [30] 17.1% | viability, T/C [31] 57.5% | viability, T/C [32] 64.1% | viability, T/C [33] 57.2% | viability, T/C [34] 51.9% | viability, T/C [35] 33% | viability, T/C [36] 16.2%
active: viability, T/C [12] 10.7%
1120 nM: IC50 (second compound 1 µM)
